Results published in US20160074420A1, “ORAL B12 THERAPY” (Emisphere Technologies, Inc., priority 2010, published 2016).

Columns and labels:
[1] = Vitamin B12 absorption after dosing Sprague-Dawley rats (plasma vitamin B12 by RIA); format: in vivo; conditions: for AUC / Cmax / Tmax: male Sprague-Dawley rats, mean, N = 5
Protocol: (1) 8.8 mg of vitamin B12, 35 mg of SNAC were weighed, thoroughly mixed and made into a tablet for dosing in rats; (2) 8.8 mg of vitamin B12, 35 mg of SNAC and 5 mg of capmul PG-8 (propylene glycol monocaprylate) were weighed, thoroughly mixed and made into a tablet; (3) 8.8 mg of vitamin B12, 35 mg of SNAC and 0.9 mg of povidone were weighed, thoroughly mixed and made into a tablet. Each of the […] processes was repeated to produce more tablets.
Male Sprague-Dawley rats (325-350 g) were dosed with vitamin B12 intravenously (0.5 mg/kg) alone, or orally with the tablets made in Example 4 at a dose of 50 mg/kg, vitamin B12 alone or in combination with SNAC at 200 mg/kg. Blood samples were collected at 0, 3, 10, 20, 30, 60, 120, 240 and 360 minutes post dosing. Plasma samples were analyzed for vitamin B12 by RIA. The model independent pharmacokinetic (PK) metrics obtained following administration of the vitamin B12/SNAC combination were compared to those obtained following administration of vitamin B12 alone.

[2] = Open label randomized study: serum cobalamin (B12) levels in subjects with mild vitamin B12 deficiency; format: in vivo, human; conditions: for Cobalamin Responder (%): number of subjects (%) with cobalamin >=350 pg/mL; for Cobalamin Responder (%) / Cobalamin Non-responder (%): ITT; for Cobalamin Non-responder (%): number of subjects (%); for mean (SD) percent change in cobalamin levels: serum
Protocol: In this study, the efficacy and safety of the oral vitamin B12 formulation (1 mg) of the present invention and intramuscular (IM) cyanocobalamin (1 mg) were evaluated in subjects with mild vitamin B12 deficiency.
(§1) This was an open-label, randomized 60-day study, with a 30-day extension, conducted in B12 deficient subjects. Subjects were assigned to a treatment according to a randomization schedule prepared by a statistician at the start of the study. The randomization scheme was stratified such that a balanced number of males and females were assigned to each treatment group. Subjects were randomized to receive either a 1000 μg oral tablet, administered once daily for 90 days or 1000 μg cyanocobalamin, administered IM on Days 1, 3, 7, 10, 14, 21, 30, 60 and 90.
(§2) A single tablet was self-administered in the fasted state and at least one hour prior to the morning meal with 50 mL water. IM study drug administration was performed by study personnel, in the research clinic, in the morning, in the fasted state and at least 1 hour prior to the morning meal on study Days 1, 3, 7, 10, 14, 21, 30, 60 and 90. For subjects assigned to receive tablets, treatment compliance was based on subject diary entries. Blood samples for pharmacodynamic assessments (efficacy variables) were collected from all subjects at baseline prior to dosing (Day 1), and on Days 15, 31, 61 and 91. Sample collection was carried out approximately 24 hours after the last dose administration, prior to that day's dose administration, and in the fasting state.
(§3) Serum cobalamin (B12) levels were determined by a validated microparticle enzyme immunoassay (MEIA) detection method with a calibration range of 100-2000 pg/mL. Sample dilution procedures were validated up to 4-fold dilution. Serum MMA levels were determined by a validated LC/MS/MS method with a calibration range of 5-200 ng/mL. Plasma HC levels were determined by a validated fluorescence polarization immunoassay (FIPA) detection method with a calibration range of 2.5-50 μmol/L; and plasma holotranscobalamin (active B12) levels were determined using a validated MEIA method, with a calibration range of 8-128 pmol/L. Sample dilution procedures were validated up to 32-fold dilution.
(§4) The primary efficacy variable was serum cobalamin levels on Day 61. The primary efficacy outcome compared the proportion of subjects in each treatment group whose cobalamin levels were normalized (≧350 pg/mL) on Day 61. The secondary efficacy variables were serum cobalamin levels on Day 91, serum MMA levels on Day 61 and Day 91 and, plasma total HC levels on Day 61 and Day 91.
(§5) The secondary efficacy outcomes were: comparison of the proportion of subjects in each treatment group whose cobalamin levels were normalized (≧350 pg/mL) on Day 91; comparison of the mean percent change from baseline in serum cobalamin levels among subjects in each treatment group on Day 61 and Day 91; comparison of the mean percent change from baseline in serum MMA levels among subjects in each treatment group on Day 61 and Day 91; comparison of the mean percent change from baseline in total plasma HC among subjects in each treatment group on Day 61 and Day 91; comparison of the mean first time to normalization of serum cobalamin (≧350 pg/mL) among subjects in each treatment group on Day 61 and Day 91. Exploratory efficacy variables and outcomes were: plasma holotranscobalamin levels on Day 61 and Day 91, measured by: comparison of the proportion of subjects in each treatment group whose holotranscobalamin levels were normalized (≧40 pmol/L) on Day 61 and Day 91; the relationship between cobalamin and holotranscobalamin levels on Day 61 and Day 91.
The analysis of the primary efficacy outcome compared the proportion of subjects in each treatment group whose cobalamin levels were normalized (i.e., cobalamin ≧350 pg/mL) on Day 61 Visit. The number and frequency of normalized subjects was calculated. […]

[3] = Open label randomized study: plasma holotranscobalamin (active B12) levels; format: in vivo, human; conditions: for Holotranscobalamin Responder (%): number of subjects (%) with holotranscobalamin >=40 pmol/L; for Holotranscobalamin Responder (%) / Holotranscobalamin Non-responder (%): ITT; for Holotranscobalamin Non-responder (%): number of subjects (%)
Protocol: as §1, §2, §3, §5
The proportion of subjects who achieved normalization of holotranscobalamin levels (≧40 pmol/L) at Day 61 and Day 91 were analyzed using the same methodology as given for the primary analysis. The relationship between cobalamin and holotranscobalamin levels at Day 61 and Day 91, and the PCFB to Day 61 and Day 91 were explored. The relationship was analyzed graphically.

[4] = Open label randomized study: safety assessments (adverse events); format: in vivo, human; conditions: 90-day study
Protocol: Safety assessments consisted of monitoring adverse events (AEs), hematology, chemistry and urinalysis laboratory test results, concomitant medications, vital sign assessments, ECG and physical examination findings.
A resting 12-lead ECG was recorded at screening and at the End-of-Study visit prior to discharge from the study. The ECG parameters recorded included ventricular rate (bpm), PR interval (msec), QRS duration (msec), QT interval (msec), QTc interval (msec, Bazett's correction). A physical examination was performed at screening and at the End-of-Study visit prior to discharge from the study.
The safety population included all randomized subjects who received at least one administration of study product and who had at least one subsequent safety assessment. Subjects are included in this group based on the actual treatment received. All safety analyses were performed on the safety population.

homocysteine (HC) = experiment: Open label randomized study: plasma HC levels; format: in vivo, human; conditions: for mean (SD) percent change in HC levels: plasma
Protocol: as §1, §2, §3, §4, §5
(§6) Change from baseline (CFB) is defined as (X−B). Percent change from baseline (PCFB) is defined as PCFB=100(X−B)/B, where B is the baseline (pre-dose Day 1) measurement and X is the measurement at Day 61 or Day 91, as required.
(§7) The proportion of subjects who achieved normalization of cobalamin levels (i.e., cobalamin ≧350 pg/mL) at Day 91 was to be analyzed using the same methodology as given above for the primary analysis (i.e., Day 61). […]

methylmalonic acid (MMA) = experiment: Open label randomized study: serum MMA levels; format: in vivo, human; conditions: for mean (SD) percent change in MMA levels: serum
Protocol: as §1, §2, §3, §4, §5, §6, §7

[5] = cited from earlier work
[6] = 50 mg/kg vitamin B12 PO (tablet)
[7] = Day 1 (baseline prior to dosing)

Vitamin B12
AUC ([1]; 0.5 mg/kg IV): 65.84 µg·min/mL | Cmax ([1]; 0.5 mg/kg IV): 2150 ng/mL | Tmax ([1]; 0.5 mg/kg IV): 4.4 min | AUC [1, 6]: 28.72 µg·min/mL | Cmax [1, 6]: 140 ng/mL | Tmax [1, 6]: 52 min | Mean Bioavailability ([1]; 50 mg/kg vitamin B12 PO versus 0.5 mg/kg IV, rats): 0.42%

cyanocobalamin [IM B12]
Total B12, Mean [2, 7]: 369 pg/mL | Total B12, Mean ([2]; Day 15): 2434 pg/mL | Cobalamin Responder (%) ([2]; Day 15): 26 (100.0) % | Cobalamin Non-responder (%) ([2]; Day 15): 0 (0.0) % | Total B12, Mean ([2]; Day 61): 2258 pg/mL | mean (SD) percent change in cobalamin levels ([2]; Day 61, change from baseline): 714.6 (732.11) percent | Cobalamin Responder (%) ([2]; Day 61): 26 (100.0) % | Cobalamin Non-responder (%) ([2]; Day 61): 0 (0.0) % | Total B12, Mean ([2]; Day 91): 2057 ± 935 pg/mL | mean (SD) percent change in cobalamin levels ([2]; Day 91, change from baseline): 608.9 (446.68) percent | Total B12, Mean ([2]; Day 91, listed as IM Treatment Group): 2057 pg/mL | Cobalamin Responder (%) ([2]; Day 91): 26 (100.0) % | Cobalamin Non-responder (%) ([2]; Day 91): 0 (0.0) % | HTC, Mean [3, 7]: 34.32 pmol/L | HTC, Mean ([3]; Day 15): 899 pmol/L | Holotranscobalamin Responder (%) ([3]; Day 15): 26 (100.0) % | Holotranscobalamin Non-responder (%) ([3]; Day 15): 0 (0.0) % | HTC, Mean ([3]; Day 61): 739 pmol/L | Holotranscobalamin Responder (%) ([3]; Day 61): 26 (100.0) % | Holotranscobalamin Non-responder (%) ([3]; Day 61): 0 (0.0) % | HTC, Mean ([3]; Day 91): 877 pmol/L | Holotranscobalamin Responder (%) ([3]; Day 91): 26 (100.0) % | Holotranscobalamin Non-responder (%) ([3]; Day 91): 0 (0.0) % | subjects reported at least one AE [4]: 57.7% | subjects reported serious adverse events (SAEs) [4]: 11.5% | Subjects who discontinued because of an AE ([4]; safety population): 0 (0)^ n (%) | Subjects with AEs ([4]; safety population): 15 (57.7) n (%) | Subjects with SAEs ([4]; safety population): 3 (11.5) n (%) | Subjects with TEAEs ([4]; safety population): 15 (57.7) n (%) | Homocysteine, Mean (homocysteine (HC); [7]): 13 µmol/L | Homocysteine, Mean (homocysteine (HC); Day 15): 10 µmol/L | Homocysteine, Mean (homocysteine (HC); Day 61): 11 µmol/L | mean (SD) percent change in HC levels (homocysteine (HC); Day 61, change from baseline): −17.49 (24.099) percent | Homocysteine, Mean (homocysteine (HC); Day 91): 12 µmol/L | mean (SD) percent change in HC levels (homocysteine (HC); Day 91, change from baseline): −8.805 (28.5406) percent | MMA, Mean (methylmalonic acid (MMA); [7]): 232 nmol/L | MMA, Mean (methylmalonic acid (MMA); Day 15): 128 nmol/L | MMA, Mean (methylmalonic acid (MMA); Day 61): 148 nmol/L | mean (SD) percent change in MMA levels (methylmalonic acid (MMA); Day 61, change from baseline): −28.17 (24.754) percent | MMA, Mean (methylmalonic acid (MMA); Day 91): 149 nmol/L | mean (SD) percent change in MMA levels (methylmalonic acid (MMA); Day 91, change from baseline): −26.58 (25.643) percent

cyanocobalamin [Oral cyanocobalamin]
B12 levels increased by a mean value ([5]; 1000 μg/day oral, 1 week, in 17 of 20 elderly patients (Kaltenbach et al.)): 0.23 µg/L | patients normalized (serum B12 levels) ([5]; 2.5 year study (Andres et al.)): 95% | patients achieved normal serum B12 levels ([5]; 3 month studies (Andres et al.)): 80-90% | patients with clinical improvements ([5]; Andres et al.): 20-30%
